Active and inactive are the calls of the source.
Columns and labels:
[1] = target: Alkaline phosphatase, placental type (Homo sapiens, UniProt P05187); assay: human placental alkaline phosphatase inhibition – biochemical, luminescence, confirmation (AID 1512); format: functional
[2] = target: T1, RNA-binding protein pos-1 (Caenorhabditis elegans, UniProt G5EF15); assay: disruptors of C. elegans POS-1 RNA interaction – biochemical, fluorescence polarization, dose response (AID 1964);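 further: purified POS-1 fused to maltose binding protein made in E. coli; potency of compounds blocking POS-1 binding to fluorescent RNA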
T1 sequence (G5EF15 whole entry): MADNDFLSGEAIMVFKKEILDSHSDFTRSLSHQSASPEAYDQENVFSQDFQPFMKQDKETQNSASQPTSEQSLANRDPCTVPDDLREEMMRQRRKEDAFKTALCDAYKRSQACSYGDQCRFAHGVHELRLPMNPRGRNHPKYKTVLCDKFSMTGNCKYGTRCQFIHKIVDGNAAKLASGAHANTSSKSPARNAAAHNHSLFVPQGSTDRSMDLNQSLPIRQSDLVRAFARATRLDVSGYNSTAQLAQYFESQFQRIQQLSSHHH

[3] = target: T2, Zinc finger protein mex-5 (Caenorhabditis elegans, UniProt Q9XUB2); assay: potency of MEX-5 RNA-binding blockers – biochemical, C. elegans, fluorescence polarization, dose response (AID 1960)
T2 sequence (Q9XUB2 whole entry): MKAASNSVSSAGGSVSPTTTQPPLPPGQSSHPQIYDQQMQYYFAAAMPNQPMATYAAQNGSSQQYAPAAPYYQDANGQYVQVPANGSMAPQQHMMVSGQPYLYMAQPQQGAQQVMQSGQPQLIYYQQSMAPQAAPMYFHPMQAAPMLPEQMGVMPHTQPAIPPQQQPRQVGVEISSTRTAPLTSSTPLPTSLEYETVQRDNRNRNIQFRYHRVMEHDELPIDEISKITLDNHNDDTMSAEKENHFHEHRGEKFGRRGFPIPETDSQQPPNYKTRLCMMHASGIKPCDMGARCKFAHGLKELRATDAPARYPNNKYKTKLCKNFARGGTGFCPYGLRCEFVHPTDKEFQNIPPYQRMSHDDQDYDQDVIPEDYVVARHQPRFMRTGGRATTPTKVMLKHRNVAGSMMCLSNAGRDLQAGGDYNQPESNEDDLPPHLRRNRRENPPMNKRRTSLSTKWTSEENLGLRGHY

Coagulation factor XII = target: T3, Coagulation factor XII (Homo sapiens, UniProt P00748); format: functional;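 further: activated factor XIIa alpha cleaving a fluorogenic AMC peptide substrate; inhibitor potency from loss of enzyme activity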
T3 sequence (P00748 whole entry): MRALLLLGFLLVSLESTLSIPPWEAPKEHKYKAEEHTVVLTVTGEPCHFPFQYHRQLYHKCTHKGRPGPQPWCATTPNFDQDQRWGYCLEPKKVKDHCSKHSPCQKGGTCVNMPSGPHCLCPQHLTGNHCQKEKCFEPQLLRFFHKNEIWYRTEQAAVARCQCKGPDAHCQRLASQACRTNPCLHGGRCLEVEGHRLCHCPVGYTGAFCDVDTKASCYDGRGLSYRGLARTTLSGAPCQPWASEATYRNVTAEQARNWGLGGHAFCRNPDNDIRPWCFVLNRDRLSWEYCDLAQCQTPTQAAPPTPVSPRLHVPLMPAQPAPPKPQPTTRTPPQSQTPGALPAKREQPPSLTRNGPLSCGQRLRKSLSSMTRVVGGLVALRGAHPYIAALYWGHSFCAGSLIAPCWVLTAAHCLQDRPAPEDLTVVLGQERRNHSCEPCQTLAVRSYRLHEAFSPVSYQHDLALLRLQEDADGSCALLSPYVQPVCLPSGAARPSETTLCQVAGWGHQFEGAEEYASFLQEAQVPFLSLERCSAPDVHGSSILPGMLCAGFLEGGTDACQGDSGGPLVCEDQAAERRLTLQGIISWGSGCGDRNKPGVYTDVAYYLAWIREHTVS

[4] = target: T4, Voltage-gated N-type calcium channel alpha-1B subunit/Amyloid beta A4 precursor protein-binding family A member 1 (Homo sapiens, UniProt Q00975+Q02410); format: protein assay
T4 sequence (Q00975 whole entry): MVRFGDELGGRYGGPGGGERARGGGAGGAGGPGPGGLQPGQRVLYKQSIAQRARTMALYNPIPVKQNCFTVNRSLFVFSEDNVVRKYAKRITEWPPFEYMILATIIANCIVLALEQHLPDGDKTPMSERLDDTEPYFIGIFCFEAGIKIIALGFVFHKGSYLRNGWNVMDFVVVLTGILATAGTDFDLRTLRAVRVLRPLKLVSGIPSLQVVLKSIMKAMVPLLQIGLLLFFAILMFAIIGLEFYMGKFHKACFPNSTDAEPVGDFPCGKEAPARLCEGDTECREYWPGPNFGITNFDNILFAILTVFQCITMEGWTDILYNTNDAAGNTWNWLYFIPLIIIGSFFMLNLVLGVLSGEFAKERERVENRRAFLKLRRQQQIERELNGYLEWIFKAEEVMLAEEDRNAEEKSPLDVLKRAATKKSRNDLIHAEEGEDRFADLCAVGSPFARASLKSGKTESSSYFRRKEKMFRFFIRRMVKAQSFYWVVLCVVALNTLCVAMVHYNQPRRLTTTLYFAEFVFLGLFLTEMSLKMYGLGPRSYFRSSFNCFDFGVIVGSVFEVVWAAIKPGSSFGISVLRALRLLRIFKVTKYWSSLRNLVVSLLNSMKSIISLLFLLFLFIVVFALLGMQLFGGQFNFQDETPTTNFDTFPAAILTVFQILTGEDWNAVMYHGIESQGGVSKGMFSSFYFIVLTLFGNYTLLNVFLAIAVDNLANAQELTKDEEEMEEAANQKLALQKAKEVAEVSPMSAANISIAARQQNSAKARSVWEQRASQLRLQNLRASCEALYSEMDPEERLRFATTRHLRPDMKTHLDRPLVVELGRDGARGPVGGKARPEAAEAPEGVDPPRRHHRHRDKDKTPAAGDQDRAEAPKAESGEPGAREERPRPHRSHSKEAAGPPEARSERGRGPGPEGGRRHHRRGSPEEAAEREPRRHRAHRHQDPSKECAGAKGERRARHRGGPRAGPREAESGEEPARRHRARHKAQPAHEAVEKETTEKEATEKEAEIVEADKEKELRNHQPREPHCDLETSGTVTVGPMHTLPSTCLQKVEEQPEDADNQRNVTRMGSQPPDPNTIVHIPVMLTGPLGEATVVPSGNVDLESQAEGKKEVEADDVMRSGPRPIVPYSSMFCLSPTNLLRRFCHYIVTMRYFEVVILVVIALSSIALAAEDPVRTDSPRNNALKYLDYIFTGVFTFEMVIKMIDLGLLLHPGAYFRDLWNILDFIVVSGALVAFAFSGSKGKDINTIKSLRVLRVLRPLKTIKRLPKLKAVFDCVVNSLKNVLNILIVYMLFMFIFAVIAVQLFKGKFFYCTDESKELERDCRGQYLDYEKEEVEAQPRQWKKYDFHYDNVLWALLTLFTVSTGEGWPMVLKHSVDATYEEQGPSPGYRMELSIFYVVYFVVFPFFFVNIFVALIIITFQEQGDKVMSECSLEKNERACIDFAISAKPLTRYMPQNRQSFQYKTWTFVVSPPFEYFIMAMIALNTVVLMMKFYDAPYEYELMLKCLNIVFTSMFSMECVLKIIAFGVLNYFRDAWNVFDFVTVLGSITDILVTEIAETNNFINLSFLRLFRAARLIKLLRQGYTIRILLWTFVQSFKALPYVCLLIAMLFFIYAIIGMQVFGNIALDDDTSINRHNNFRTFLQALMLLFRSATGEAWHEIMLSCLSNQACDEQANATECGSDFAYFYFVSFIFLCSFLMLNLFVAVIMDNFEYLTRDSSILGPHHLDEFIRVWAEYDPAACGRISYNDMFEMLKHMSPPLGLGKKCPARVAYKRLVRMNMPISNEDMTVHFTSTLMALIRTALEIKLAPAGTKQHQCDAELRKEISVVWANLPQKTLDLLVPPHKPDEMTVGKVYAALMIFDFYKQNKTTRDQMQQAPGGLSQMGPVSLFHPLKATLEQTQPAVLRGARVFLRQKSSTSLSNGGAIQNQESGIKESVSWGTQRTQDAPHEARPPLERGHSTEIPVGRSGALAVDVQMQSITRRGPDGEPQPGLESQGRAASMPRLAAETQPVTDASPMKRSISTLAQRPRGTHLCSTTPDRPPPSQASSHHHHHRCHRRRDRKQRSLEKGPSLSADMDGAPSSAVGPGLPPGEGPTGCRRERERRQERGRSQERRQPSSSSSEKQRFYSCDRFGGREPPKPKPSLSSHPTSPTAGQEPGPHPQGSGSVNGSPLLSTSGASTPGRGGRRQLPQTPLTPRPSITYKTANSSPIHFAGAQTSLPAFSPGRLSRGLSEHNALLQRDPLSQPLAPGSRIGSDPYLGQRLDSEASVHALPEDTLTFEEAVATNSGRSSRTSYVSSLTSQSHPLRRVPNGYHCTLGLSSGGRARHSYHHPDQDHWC
T4 sequence (Q02410 whole entry): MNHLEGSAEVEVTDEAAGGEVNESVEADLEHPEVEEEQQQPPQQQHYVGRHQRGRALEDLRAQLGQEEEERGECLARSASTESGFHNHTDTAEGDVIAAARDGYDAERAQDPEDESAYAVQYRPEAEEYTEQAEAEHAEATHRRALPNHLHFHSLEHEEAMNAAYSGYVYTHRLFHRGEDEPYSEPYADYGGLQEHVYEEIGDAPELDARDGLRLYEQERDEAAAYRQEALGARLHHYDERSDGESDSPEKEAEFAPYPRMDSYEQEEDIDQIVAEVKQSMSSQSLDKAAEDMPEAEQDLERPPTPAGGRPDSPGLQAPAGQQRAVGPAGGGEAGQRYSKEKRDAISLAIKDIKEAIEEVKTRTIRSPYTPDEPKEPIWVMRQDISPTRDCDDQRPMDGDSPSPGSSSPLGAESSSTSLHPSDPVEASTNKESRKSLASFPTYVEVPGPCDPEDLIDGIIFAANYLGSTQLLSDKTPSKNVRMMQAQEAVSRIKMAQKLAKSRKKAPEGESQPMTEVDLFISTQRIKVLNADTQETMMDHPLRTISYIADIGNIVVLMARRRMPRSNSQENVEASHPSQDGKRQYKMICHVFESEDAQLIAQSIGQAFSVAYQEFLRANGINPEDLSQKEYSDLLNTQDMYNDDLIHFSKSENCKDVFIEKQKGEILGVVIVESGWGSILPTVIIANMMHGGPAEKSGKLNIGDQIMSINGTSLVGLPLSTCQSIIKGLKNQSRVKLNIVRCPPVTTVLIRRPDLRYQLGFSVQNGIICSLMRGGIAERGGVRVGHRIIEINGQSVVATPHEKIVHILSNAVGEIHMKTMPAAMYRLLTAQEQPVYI

SUMO-activating enzyme [5] = target: T5, SUMO-activating enzyme (Homo sapiens, UniProt Q9UBT2); assay: blockers of UBC9-mediated SUMO conjugation – biochemical, AlphaScreen, SUMOylation inhibitor project, confirmation (AID 2018); format: functional
Estrogen receptor = target: T6, Estrogen receptor (Homo sapiens, UniProt P03372);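 further: potency for inhibiting coactivator peptide recruitment to the receptor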
T6 sequence (P03372 whole entry): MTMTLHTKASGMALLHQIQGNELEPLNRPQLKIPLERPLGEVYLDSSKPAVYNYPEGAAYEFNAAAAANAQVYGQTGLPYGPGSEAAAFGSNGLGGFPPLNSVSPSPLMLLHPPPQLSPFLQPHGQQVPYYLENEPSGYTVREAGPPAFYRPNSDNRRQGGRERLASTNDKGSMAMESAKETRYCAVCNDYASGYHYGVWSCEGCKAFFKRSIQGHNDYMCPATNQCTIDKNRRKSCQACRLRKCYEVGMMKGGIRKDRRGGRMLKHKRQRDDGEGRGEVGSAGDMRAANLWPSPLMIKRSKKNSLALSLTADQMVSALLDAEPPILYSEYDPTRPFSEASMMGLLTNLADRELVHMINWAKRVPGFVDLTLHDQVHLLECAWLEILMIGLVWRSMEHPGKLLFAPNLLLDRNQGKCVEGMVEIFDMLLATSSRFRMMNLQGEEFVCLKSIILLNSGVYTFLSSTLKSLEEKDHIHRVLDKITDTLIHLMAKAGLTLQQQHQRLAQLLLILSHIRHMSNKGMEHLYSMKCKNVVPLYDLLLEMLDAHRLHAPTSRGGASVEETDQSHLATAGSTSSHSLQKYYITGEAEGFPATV

SUMO-activating enzyme [6] = target: T5, SUMO-activating enzyme; assay: blockers of SAE1/SAE2–UBC9 SUMO transfer – biochemical, HTRF, uHTS, primary screen (AID 2006); format: protein-complex assay
[7] = target: T4, Voltage-gated N-type calcium channel alpha-1B subunit/Amyloid beta A4 precursor protein-binding family A member 1; format: protein assay; remark: listed apart in the source
[8] = target: T7, Kappa-type opioid receptor (Homo sapiens, UniProt P41145); format: functional
T7 sequence (P41145 whole entry): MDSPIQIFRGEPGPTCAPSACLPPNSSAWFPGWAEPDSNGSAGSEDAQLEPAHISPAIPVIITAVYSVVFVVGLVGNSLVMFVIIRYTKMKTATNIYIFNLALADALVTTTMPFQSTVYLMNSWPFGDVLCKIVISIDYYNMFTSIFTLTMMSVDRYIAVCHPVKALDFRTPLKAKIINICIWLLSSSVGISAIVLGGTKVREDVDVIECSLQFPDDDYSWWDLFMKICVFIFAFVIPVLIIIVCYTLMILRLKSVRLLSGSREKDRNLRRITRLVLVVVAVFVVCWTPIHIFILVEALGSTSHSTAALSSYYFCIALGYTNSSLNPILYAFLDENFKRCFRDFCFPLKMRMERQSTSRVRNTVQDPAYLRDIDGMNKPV

[9] = target: T7, Kappa-type opioid receptor; format: functional; remark: listed apart in the source
Streptokinase A = target: T8, Streptokinase A (Streptococcus pyogenes serotype M1, UniProt P10520); assay: viability-normalized secreted streptokinase activity reduction – plasminogen activation absorbance, OD405, dose response (AID 1914); format: functional, Streptococcus pyogenes M1 GAS;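 further: secreted streptokinase activity via plasminogen activation per viability signal from cell pellet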
T8 sequence (P10520 whole entry): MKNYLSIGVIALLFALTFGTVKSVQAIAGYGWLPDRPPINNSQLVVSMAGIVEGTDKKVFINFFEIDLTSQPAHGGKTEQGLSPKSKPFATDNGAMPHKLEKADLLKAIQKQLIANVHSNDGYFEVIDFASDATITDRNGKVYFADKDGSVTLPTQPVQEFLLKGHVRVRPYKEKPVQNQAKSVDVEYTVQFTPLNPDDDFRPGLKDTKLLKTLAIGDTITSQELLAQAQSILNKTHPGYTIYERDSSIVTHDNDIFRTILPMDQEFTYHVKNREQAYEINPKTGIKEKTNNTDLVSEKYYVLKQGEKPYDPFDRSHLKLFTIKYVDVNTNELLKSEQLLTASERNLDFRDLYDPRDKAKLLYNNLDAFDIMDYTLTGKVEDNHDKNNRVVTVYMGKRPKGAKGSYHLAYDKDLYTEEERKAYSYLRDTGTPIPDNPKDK

Beta-galactosidase [10] = target: T9, Beta-galactosidase (Escherichia coli, UniProt Q8VNN2); assay: detection-enzyme interference by beta-gal modulators – biochemical, E. coli enzyme, set 3, artefact control for CCR6 antagonist project, dose response (AID 504712); format: functional
T9 sequence (Q8VNN2 whole entry): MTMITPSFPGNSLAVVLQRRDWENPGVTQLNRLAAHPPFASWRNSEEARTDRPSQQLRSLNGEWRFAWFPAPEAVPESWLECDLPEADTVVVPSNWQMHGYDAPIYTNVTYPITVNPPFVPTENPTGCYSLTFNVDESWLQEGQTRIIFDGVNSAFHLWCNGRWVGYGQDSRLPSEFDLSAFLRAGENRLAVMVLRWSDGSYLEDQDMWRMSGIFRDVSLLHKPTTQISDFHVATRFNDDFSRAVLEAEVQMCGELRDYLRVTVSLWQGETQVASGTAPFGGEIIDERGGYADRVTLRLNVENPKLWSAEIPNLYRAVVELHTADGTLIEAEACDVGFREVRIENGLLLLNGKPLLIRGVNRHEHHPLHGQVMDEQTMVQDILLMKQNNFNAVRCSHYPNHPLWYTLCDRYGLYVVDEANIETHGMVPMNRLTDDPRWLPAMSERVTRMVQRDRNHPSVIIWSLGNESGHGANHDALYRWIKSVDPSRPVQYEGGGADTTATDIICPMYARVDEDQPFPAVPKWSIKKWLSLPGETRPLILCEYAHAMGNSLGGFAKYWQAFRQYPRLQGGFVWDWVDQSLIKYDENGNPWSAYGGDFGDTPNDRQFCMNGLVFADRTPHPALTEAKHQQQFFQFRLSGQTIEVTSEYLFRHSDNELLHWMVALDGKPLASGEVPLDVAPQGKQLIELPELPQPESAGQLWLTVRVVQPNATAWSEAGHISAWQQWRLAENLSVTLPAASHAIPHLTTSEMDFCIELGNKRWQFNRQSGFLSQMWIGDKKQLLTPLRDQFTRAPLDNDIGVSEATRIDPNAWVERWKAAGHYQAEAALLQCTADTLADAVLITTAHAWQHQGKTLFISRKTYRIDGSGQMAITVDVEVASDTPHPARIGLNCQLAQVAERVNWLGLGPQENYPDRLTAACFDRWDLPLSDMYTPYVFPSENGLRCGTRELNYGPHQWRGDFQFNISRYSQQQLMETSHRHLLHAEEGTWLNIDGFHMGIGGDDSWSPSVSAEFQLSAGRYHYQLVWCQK

Beta-galactosidase [11] = target: T9, Beta-galactosidase; format: functional
[12] = system: Streptococcus sp. 'group A'; assay: Streptococcus pyogenes SK(-)GAS viability under kanamycin – luminescence, BacTiterGlo, confirmation, counter-screen for streptokinase expression inhibitor project, dose response (AID 1900); format: functional, organism-based; details: Streptococcus sp. 'group A'
Streptococcus = assay: GAS UMAA2166 growth inhibition – luminescence, BacTiterGlo, counter-screen for streptokinase expression inhibitor project, dose response (AID 1915); format: functional, organism-based; details: Streptococcus;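 further: potency for reduction of bacterial viability or growth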
Cytochrome P450 3A4 [13] = target: T10, Cytochrome P450 3A4 (Homo sapiens, UniProt P08684); details: Potency
Cytochrome P450 2C9 = Cytochrome P450 2C9 (Homo sapiens, UniProt P11712); details: Potency
[14] = target: DNA dC->dU-editing enzyme APOBEC-3G (Homo sapiens, UniProt Q9HC16); assay: Dose Response confirmation of small molecule APOBEC3G DNA Deaminase Inhibitors via a fluorescence-based single-stranded DNA deaminase assay. [Related pubchem assays (depositor defined):AID493012, AID493028]; format: functional
Chain of DNA dC->dU-editing enzyme APOBEC-3G (Q9HC16 whole entry): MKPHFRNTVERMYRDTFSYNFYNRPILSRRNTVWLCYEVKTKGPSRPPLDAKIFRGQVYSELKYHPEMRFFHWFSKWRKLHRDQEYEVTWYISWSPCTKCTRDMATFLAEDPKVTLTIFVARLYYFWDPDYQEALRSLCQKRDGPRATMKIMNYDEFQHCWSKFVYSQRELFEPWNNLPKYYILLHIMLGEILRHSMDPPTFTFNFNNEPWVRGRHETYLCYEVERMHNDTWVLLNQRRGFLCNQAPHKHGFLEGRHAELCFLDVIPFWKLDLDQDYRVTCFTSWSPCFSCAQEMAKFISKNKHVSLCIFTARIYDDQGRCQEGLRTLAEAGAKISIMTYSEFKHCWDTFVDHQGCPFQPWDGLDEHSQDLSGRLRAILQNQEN

[15] = target: DNA dC->dU-editing enzyme APOBEC-3A (Homo sapiens, UniProt P31941); assay: A3A deaminase inhibition for selectivity – biochemical, dose response (AID 504722); format: functional
Large T antigen = Large T antigen (Simian virus 40, UniProt P03070); format: functional, Betapolyomavirus macacae;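 further: Confirmatory-stage PubChem screen for compounds that inhibit SV40 T antigen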
[16] = target: Glucose-6-phosphate 1-dehydrogenase (Homo sapiens, UniProt P11413); assay: inhibition of Homo sapiens G6PD, dose series – biochemical, fluorescence, selectivity assay for P. falciparum G6PD inhibitor project, dose response (AID 504792); format: functional
Cytochrome P450 3A4 [17] = target: T10, Cytochrome P450 3A4
Trypsin = Trypsin (Sus scrofa, UniProt P00761); assay: trypsin protease activity blockade – biochemical, quenched peptide fluorescence, cherry-pick, selectivity assay for Rce1 protease inhibitor project, dose response (AID 488789)
[18] = target: FAD-linked sulfhydryl oxidase ALR (Homo sapiens, UniProt P55789); assay: ALR-catalysed DTT oxidation blockers – biochemical, H2O2 detection, luminescence, cherry-pick, dose response (AID 493248)
cells = format: functional
Nonstructural protein 1 = Nonstructural protein 1 (Influenza A virus, UniProt Q194T2); format: functional, Influenza A virus (A/California/07/2009(H1N1))
[19] = Vero E6 cell cytotoxicity, dose response, cytotoxicity control for non-replicating M. tuberculosis project, secondary assay (AID 492998); format: functional, VeroE6; details: Vero C1008
[20] = THP-1 cell cytotoxicity, dose response, cytotoxicity control for non-replicating M. tuberculosis project (AID 489025); format: functional
[21] = Luminescence Cell-Based Dose Retest to Confirm Inhibitors of Cancer Stem Cells. [Related pubchem assays (depositor defined):AID2717, AID2721]; format: functional, Homo sapiens; details: Homo sapiens
[22] = microbe, parasite or virus in culture; format: functional; details: Mycobacterium tuberculosis
INS1 = assay: INS-1E survival protection against cytokine death – cell-based, luminescence, retest, dose response (AID 449756); format: functional; details: Rattus norvegicus;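 further: cell death triggered by IL-1 beta plus TNF-alpha plus IFN-gamma mixture; protective hits raise ATP signal compared with cytokine alone wells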

With CCOCCCNC(=O)CCC(=O)NNc1nc2ccccc2c2nc(C)nn12 the IC50 [1] was > 100 µM (inactive), the EC50 [2] was > 300 µM (not active) and the EC50 [3] was 1.45 µM (active).
With Cc1ccc(NC(=O)CCn2cccc2)cc1C the IC50 (Coagulation factor XII) was > 50 µM (inactive).
For CCc1ccc2nc(NC(=O)c3ccc4c(O)nc(CN5CCOCC5)nc4c3)sc2c1, the IC50 [4] was 6.59 µM (active), the IC50 (SUMO-activating enzyme [5]) was 7.19 µM (active) and the IC50 (Estrogen receptor) was 8.23 µM (active). For the same compound, the IC50 (SUMO-activating enzyme [6]) was 3.54 µM (active) and the IC50 [7] was > 50 µM (inactive).
For Cc1ccn(CC(=O)O)c(=O)c1, the IC50 (Coagulation factor XII) was > 50 µM (inactive).
With Cc1cc2nc(N3C(=O)CNC3=S)sc2cc1C the IC50 [8] was greater than 32 µM, the IC50 [9] was 8.55 µM (active) and the EC50 (Streptokinase A) was > 150 µM (not active). For the same compound, the IC50 (Beta-galactosidase [10]) was > 66.6 µM (inactive), the EC50 (Beta-galactosidase [11]) was > 31.5 µM (inactive) and the EC50 [12] was 3.98 µM (active). The EC50 (Streptococcus) was 10.6 µM (active).
For CC1CCC2C(=O)N3C(CCC(C)[C@H]3c3ccccc3Br)C(=O)N2C1c1ccccc1Br (some centres not stated), the AC50 (Cytochrome P450 3A4 [13]) was 1.26 µM (inconclusive) and the AC50 (Cytochrome P450 2C9) was 6.31 µM (inconclusive).
With Cc1cc(C)nc(SSc2nc(C)cc(C)n2)n1 the IC50 [14] was 5.1 µM (active), the IC50 [15] was > 100 µM (inactive) and the IC50 (Large T antigen) was 28.2 µM (active). The IC50 [16] was > 80 µM (inactive).
With Cc1ccc(NNS(=O)(=O)c2ccc(C)cc2)cc1 the IC50 [14] was 37.9 µM (active), the IC50 [16] was > 80 µM (inactive) and the AC50 (Cytochrome P450 3A4 [17]) was 28.2 µM (inconclusive).
With CC1CCc2c(sc(NC(=O)COC(=O)c3ccccc3NCc3ccco3)c2C#N)C1 (configuration not stated) the AC50 (Trypsin) was 9.07 µM (active).
With COc1cc(/C=N/n2c(S)nnc2COc2ccccc2)cc(Br)c1O the IC50 [14] was 2.19 µM (active), the IC50 [15] was > 100 µM (inactive) and the AC50 [18] was 2.65 µM (active).
For CCOc1ccc(C(=O)N/N=C/c2cccc3cccnc23)cc1, the IC50 (Beta-galactosidase [10]) was > 66.6 µM (inactive), the IC50 (cells) was 2.75 µM (active) and the IC50 (Nonstructural protein 1) was 11.4 µM (active). The CC50 [19] was > 20 µM (active) and the CC50 [20] was 11.5 µM (active).
With CN(/N=C/c1cc(Br)cc(Br)c1O)c1cccc(C(F)(F)F)n1 the AC50 [21] was 5.94 µM (active), the EC50 (Streptokinase A) was > 150 µM (not active) and the IC50 (Beta-galactosidase [10]) was > 66.6 µM (inactive). The CC50 [22] was 17.6 µM (active), the AC50 (INS1) was 10.7 µM (active) and the EC50 [12] was 0.58 µM (active). For the same compound, the EC50 (Streptococcus) was 9.95 µM (active).
